Experimental findings from ChEMBL document CHEMBL1857833, “Screening and optimization of specific chemical series against human African Trypanosomiasis (HAT)” are described below.

One data set deals with Trypanosoma brucei. Briefly: DNDI: Inhibition of Human African Trypanosomiasis, SBRI 427, in vitro. It is filed as functional, organism-based.
Data set [1] is described as follows: DNDI: Cytotoxicity against L929 mouse fibroblasts, CYTO-SP, 24 hour. It is filed as toxicity, cell-based. The conditions noted are these: mouse, L929 mouse fibroblasts.
The nature of data set [2]: DNDI: Cytotoxicity against L929 mouse fibroblasts, 72 hour. It is filed as toxicity, cell-based. The settings on record: mouse, L929 mouse fibroblasts.
The mark [3] stands for this setting: Trypanosoma brucei, SBRI 427, read-out: IC50.

≈ marks a conversion by molar mass, not a printed value.

As to `COc1ccc(C(=O)NC2CCCCC2)cc1`, the half-maximal inhibitory concentration (IC50) with Trypanosoma brucei (setting [3]) was more than 5 µg/mL. The same compound returned an IC50 at 24 h in data set [1] of more than 50 µg/mL.

Compound `CCCCCC(C)NCc1ccc(-c2ccccc2)s1` (stereo not given) registered an IC50 at 72 h in data set [2] of 7.16 µg/mL (≈ 24.9 µM). Further, the IC50 in the data set on Trypanosoma brucei (setting [3]) was determined as 1.8 µg/mL (≈ 6.26 µM). In data set [1], this compound registered a half-inhibitory concentration (IC50) at 24 h of 23 µg/mL (≈ 80 µM).

For `COc1cccc(-c2noc(C(C)C)n2)c1`, the IC50 with Trypanosoma brucei (setting [3]) is more than 5 µg/mL. The same compound returned an IC50 at 24 h in data set [1] of more than 50 µg/mL.

With `COc1ccc(-c2noc(C(C)C)n2)cc1`, the IC50 with Trypanosoma brucei (setting [3]) is more than 5 µg/mL. This compound also yielded an IC50 at 24 h in data set [1] of more than 50 µg/mL.

Take `CCCCCC(C)NCc1coc(-c2ccc(OC(F)(F)F)cc2)n1` (stereo not given): it took 3.56 µg/mL (≈ 9.99 µM) to reach half-maximal inhibition in data set [2] (IC50 at 72 h). Further, the IC50 in the data set on Trypanosoma brucei (setting [3]) came out at 1.11 µg/mL (≈ 3.11 µM). This compound also registered an IC50 at 24 h in data set [1] of more than 50 µg/mL.

For `COc1ccc(C(=O)N(C)OC)cc1`, the IC50 in the data set on Trypanosoma brucei (setting [3]) was more than 5 µg/mL. Further, in data set [1], the IC50 at 24 h is more than 50 µg/mL.

In the case of `COc1ccc(Oc2ncccc2/C(=N/O)NC2CCCCC2)cc1`, the IC50 at 72 h in data set [2] is more than 10 µg/mL. Moreover, the IC50 with Trypanosoma brucei worked out at 0.33 µg/mL (≈ 0.967 µM); in the data set with Trypanosoma brucei (setting [3]) it was 0.29 µg/mL (≈ 0.849 µM). The IC50 at 24 h in data set [1] is more than 50 µg/mL.

`CCCCCC(C)NCc1coc(-c2ccccc2C)n1` (stereo not given) displayed an IC50 at 72 h in data set [2] of 3.6 µg/mL (≈ 12.6 µM). The IC50 in the data set on Trypanosoma brucei (setting [3]) amounted to 4.1 µg/mL (≈ 14.3 µM). In addition, the concentration for half-maximal inhibition (IC50) at 24 h in data set [1] turned out to be 16 µg/mL (≈ 55.9 µM).

Regarding `OC/C(=N\O)c1ccccc1`, the concentration for half-maximal inhibition (IC50) in the data set on Trypanosoma brucei (setting [3]) was more than 5 µg/mL. In data set [1], the IC50 at 24 h was more than 50 µg/mL.

On to `COc1ccc(C(=O)NC2CCCCC2)c(OC)c1`, for which the IC50 in the data set on Trypanosoma brucei (setting [3]) is more than 5 µg/mL. The compound further displayed an IC50 at 24 h in data set [1] of more than 50 µg/mL.

With `CCCCCC(C)NCc1cc(-c2ccccc2)nn1C` (stereo not given), in data set [2], the IC50 at 72 h was found to be 12.7 µg/mL (≈ 44.5 µM). Moreover, the IC50 in the data set on Trypanosoma brucei (setting [3]) was determined as 3.38 µg/mL (≈ 11.8 µM). This compound came in with an IC50 at 24 h in data set [1] of 50 µg/mL (≈ 175 µM).

`CCCCCC(C)NCc1coc(-c2ccc(F)cc2)n1` (stereo not given) registered an IC50 at 72 h in data set [2] of 7.1 µg/mL (≈ 24.5 µM). Moreover, the IC50 in the data set with Trypanosoma brucei (setting [3]) came out at 2.71 µg/mL (≈ 9.33 µM). This compound also came in with an IC50 at 24 h in data set [1] of 17 µg/mL (≈ 58.5 µM).

For `CCc1ccc(N/C(=N/O)c2ccccc2-c2ccccc2)cc1`, in the data set on Trypanosoma brucei (setting [3]), the 50% inhibitory concentration (IC50) stood at 5 µg/mL (≈ 15.8 µM). Also, the IC50 at 24 h in data set [1] amounted to 15.6 µg/mL (≈ 49.4 µM).

In data set [2], `CCCCCC(C)NCc1coc(-c2cccc3ccccc23)n1` (stereo not given) had an IC50 at 72 h of 6.56 µg/mL (≈ 20.3 µM). Besides, the IC50 with Trypanosoma brucei (setting [3]) was determined as 1.14 µg/mL (≈ 3.54 µM). Also, it took 16 µg/mL (≈ 49.6 µM) to reach half-maximal inhibition in data set [1] (IC50 at 24 h).

For the compound `CCOc1ccccc1-c1nc(CNC2C[C@@H]3C[C@H]([C@H]2C)C3(C)C)co1` (stereo not given in full), the IC50 in the data set with Trypanosoma brucei turned out to be 2.05 µg/mL (≈ 5.78 µM); with Trypanosoma brucei (setting [3]), 1.05 µg/mL (≈ 2.96 µM). The same compound registered an IC50 at 24 h in data set [1] of 27.8 µg/mL (≈ 78.4 µM).

Turning to `COc1ccc(/C(CNC(C)C)=N/O)cc1`, in the data set on Trypanosoma brucei (setting [3]), the IC50 is more than 5 µg/mL. Also, the IC50 at 24 h in data set [1] is more than 50 µg/mL.

The compound `CCOc1ccc(-c2nc(CNC3CC4CCC3C4)co2)cc1` (stereo not given) had an IC50 at 72 h in data set [2] of 4.62 µg/mL (≈ 14.8 µM). Besides, the IC50 in the data set with Trypanosoma brucei (setting [3]) stood at 4.1 µg/mL (≈ 13.1 µM). The compound further came in with an IC50 at 24 h in data set [1] of 35 µg/mL (≈ 112 µM).

Regarding `COc1ccccc1/C(=N/O)N(C(=O)C(C)C)C(=O)C(C)C`, the IC50 in the data set with Trypanosoma brucei (setting [3]) was more than 5 µg/mL. In data set [1], this compound returned an IC50 at 24 h of more than 50 µg/mL.

Regarding `O/N=C(\NC1CCCCC1)c1cccc(F)c1`, the IC50 in the data set with Trypanosoma brucei (setting [3]) is more than 5 µg/mL. The IC50 at 24 h in data set [1] is more than 50 µg/mL.

As for `CCCCc1ccc(-c2nc(C(F)(F)F)co2)cc1`, the IC50 at 72 h in data set [2] was determined as 43.8 µg/mL (≈ 163 µM). Moreover, the IC50 in the data set on Trypanosoma brucei (setting [3]) is more than 5 µg/mL. Further, the IC50 at 24 h in data set [1] was more than 50 µg/mL.

`CCCOc1ccc(-c2nc(CNC3CC(C)CC(C)(C)C3)co2)cc1` (stereo not given): in data set [2], the IC50 at 72 h is less than 3.13 µg/mL. Further, the IC50 in the data set on Trypanosoma brucei (setting [3]) is 1.37 µg/mL (≈ 3.84 µM). In data set [1], this compound showed a concentration for half-maximal inhibition (IC50) at 24 h of 15.9 µg/mL (≈ 44.5 µM).

In data set [2], `CCCOc1ccc(-c2nc(CNC[C@@H]3CC[C@H]4C[C@@H]3C4(C)C)co2)cc1` returned an IC50 at 72 h of less than 3.13 µg/mL. Further, the IC50 with Trypanosoma brucei (setting [3]) was 0.74 µg/mL (≈ 2.01 µM). Besides, it took 16 µg/mL (≈ 43.5 µM) to reach half-maximal inhibition in data set [1] (IC50 at 24 h).

On to `O=C(O)c1coc(-c2ccccc2)n1`, for which the IC50 at 72 h in data set [2] was more than 50 µg/mL. Besides, the IC50 with Trypanosoma brucei (setting [3]) is more than 5 µg/mL. In data set [1], this compound gave an IC50 at 24 h of more than 50 µg/mL.

In the case of `C[C@H]1C(NCc2coc(-c3ccccc3Br)n2)C[C@@H]2C[C@H]1C2(C)C` (stereo not given in full), the values for the half-inhibitory concentration (IC50) in the data set on Trypanosoma brucei and with Trypanosoma brucei (setting [3]) were 0.94 µg/mL (≈ 2.41 µM) and 1.22 µg/mL (≈ 3.13 µM), respectively. In data set [1], the IC50 at 24 h came to 43.2 µg/mL (≈ 111 µM).

As for `CCCCCC(C)NCc1cccc(-c2ccccc2)c1` (stereo not given), the IC50 at 72 h in data set [2] stood at 3.39 µg/mL (≈ 12 µM). In addition, in the data set with Trypanosoma brucei (setting [3]), the 50% inhibitory concentration (IC50) worked out at 0.81 µg/mL (≈ 2.88 µM). In addition, the IC50 at 24 h in data set [1] was more than 50 µg/mL.

For `CCCCCC(C)NCc1coc(-c2cccc(C)c2)n1` (stereo not given), half-maximal inhibition in data set [2] (IC50 at 72 h) was put at 7.13 µg/mL (≈ 24.9 µM). In addition, in the data set with Trypanosoma brucei (setting [3]), the IC50 worked out at 3.33 µg/mL (≈ 11.6 µM). Also, inhibition in data set [1] was half-maximal at 16 µg/mL (≈ 55.9 µM) (IC50 at 24 h).

In data set [2], `CCCCc1ccc(-c2nc(C(C)(C)C)co2)cc1` displayed an IC50 at 72 h of 28.7 µg/mL (≈ 112 µM). Also, the IC50 in the data set with Trypanosoma brucei (setting [3]) was more than 5 µg/mL. Further, the IC50 at 24 h in data set [1] is more than 50 µg/mL.

Consider `COc1ccc(/C(=N/O)N(C(=O)C(C)C)C(=O)C(C)C)cc1`, for which the IC50 with Trypanosoma brucei (setting [3]) was more than 5 µg/mL. In data set [1], this compound displayed an IC50 at 24 h of more than 50 µg/mL.

Consider `CCCCCC(C)NCc1coc(-c2ccccc2OC(F)(F)F)n1` (stereo not given), for which the IC50 at 72 h in data set [2] was 3.23 µg/mL (≈ 9.06 µM). For the same compound, the IC50 with Trypanosoma brucei (setting [3]) stood at 1.48 µg/mL (≈ 4.15 µM). Moreover, in data set [1], it took 37 µg/mL (≈ 104 µM) to reach half-maximal inhibition (IC50 at 24 h).

The compound `CCCCCC(C)NCc1ccc(-c2ccccc2)o1` (stereo not given) gave a concentration for half-maximal inhibition (IC50) at 72 h in data set [2] of 7.14 µg/mL (≈ 26.3 µM). In addition, the IC50 in the data set with Trypanosoma brucei (setting [3]) was 3.62 µg/mL (≈ 13.3 µM). In data set [1], this compound gave an IC50 at 24 h of 32 µg/mL (≈ 118 µM).

For the compound `CCCCCC(C)NCc1coc(-c2ccccc2F)n1` (stereo not given), in data set [2], it took 3.59 µg/mL (≈ 12.4 µM) to reach half-maximal inhibition (IC50 at 72 h). Besides, the IC50 with Trypanosoma brucei (setting [3]) turned out to be 1.82 µg/mL (≈ 6.27 µM). In addition, the IC50 at 24 h in data set [1] worked out at 13 µg/mL (≈ 44.8 µM).

For the compound `COc1ccc(C(=N)NO)cc1`, in the data set on Trypanosoma brucei (setting [3]), the IC50 is more than 5 µg/mL. The same compound showed an IC50 at 24 h in data set [1] of more than 50 µg/mL.

The IC50 is the concentration that inhibits the measured activity by half.
